In paper PMC4673880, “Structure and substrate selectivity of the 750-kDa α6β6 holoenzyme of geranyl-CoA carboxylase” (Nature Communications, 2015):

Molecular target: T1, PfGCC (geranyl-CoA carboxylase holoenzyme, α6β6) (Pseudomonas protegens, UniProt Q4K8Z5)
T1 construct: gene atuC; bicistronic; beta N-terminal His6-tagged (tag not removed), alpha untagged; expressed in E. coli BL21 Star (DE3); 750-kDa α6β6 dodecamer; with Geranyl-CoA carboxylase alpha subunit (biotin-containing; BC, BT and BCCP domains)
Test: coupled pyruvate kinase / lactate dehydrogenase assay, ATP hydrolysis as NADH loss at […] nm
Assay type: biochemical
Details: pH 8.0, 0.5 mM ATP, 8 mM MgCl2, 40 mM KHCO3, 250 mM KCl; cis/trans mixture, only ~25% cis, concentration counted as total; read-out: apparent Km

## geranyl-CoA
  Km: 50 µM
